Data as given in patent US20200069607A1, “MOUTHWASH FOR TREATING ORAL CANCERS” (THE BOARD OF REGENTS OF THE UNIVERSITY OF TEXAS SYSTEM, priority 2016, published 2020).

Legend:
[1] = biological target: T1, TRPV1 (Homo sapiens, UniProt Q8NER1); assay: Calcium imaging of CHO cells overexpressing TRPV1; assay type: cell-based
T1 construct: expressed in transfected cells; host or cells: CHO cells
Description: (§1) FIGS. 6A-D: Calcium imaging of CHO cells overexpressing TRPA1 (FIG. 6A) or TRPV1 (FIG. 6B). Calcium imaging of cancer cell lines, Ca127 (FIG. 6C) and HeLa (FIG. 6D).

[2] = system: cleaved PARP (c-PARP); assay: Western blot of cleaved PARP, HeLa cells; assay type: cell-based; settings: increasing concentrations of thymol
Description: (§2) […]. […] […].

[3] = system: HeLa (Cervical cancer) cells; assay: Cell viability / proliferation assay, HeLa cells; settings: Homo sapiens, 48 h, read-out: IC50, anti-proliferative effect
[4] = system: HeLa cells; assay: Calcium imaging of HeLa cells; assay type: cell-based; settings: negative for TRPA1, thymol treatment
Description: as §1, §2

[5] = system: HeLa cells; assay: Clonogenic assay, HeLa cells
Description: (§3) FIGS. 3A-D: Clonogenic Assay of Ca127 (FIGS. 3A and 3C) and HeLa cells (FIGS. 3B and 3D).

[6] = system: Ca127 (OSCC) cells; assay: Cell viability / proliferation (MTS) assay, Ca127 cells; assay type: cell-based; settings: treated 24 hours, p<0.001, read-out: IC50, anti-proliferative effect
[7] = biological target: T2, TRPA1 (Homo sapiens, UniProt O75762); assay: Calcium imaging of CHO cells overexpressing TRPA1; assay type: cell-based
T2 construct: expressed in transfected cells; host or cells: CHO cells
T2 sequence (O75762 whole entry, species assumed): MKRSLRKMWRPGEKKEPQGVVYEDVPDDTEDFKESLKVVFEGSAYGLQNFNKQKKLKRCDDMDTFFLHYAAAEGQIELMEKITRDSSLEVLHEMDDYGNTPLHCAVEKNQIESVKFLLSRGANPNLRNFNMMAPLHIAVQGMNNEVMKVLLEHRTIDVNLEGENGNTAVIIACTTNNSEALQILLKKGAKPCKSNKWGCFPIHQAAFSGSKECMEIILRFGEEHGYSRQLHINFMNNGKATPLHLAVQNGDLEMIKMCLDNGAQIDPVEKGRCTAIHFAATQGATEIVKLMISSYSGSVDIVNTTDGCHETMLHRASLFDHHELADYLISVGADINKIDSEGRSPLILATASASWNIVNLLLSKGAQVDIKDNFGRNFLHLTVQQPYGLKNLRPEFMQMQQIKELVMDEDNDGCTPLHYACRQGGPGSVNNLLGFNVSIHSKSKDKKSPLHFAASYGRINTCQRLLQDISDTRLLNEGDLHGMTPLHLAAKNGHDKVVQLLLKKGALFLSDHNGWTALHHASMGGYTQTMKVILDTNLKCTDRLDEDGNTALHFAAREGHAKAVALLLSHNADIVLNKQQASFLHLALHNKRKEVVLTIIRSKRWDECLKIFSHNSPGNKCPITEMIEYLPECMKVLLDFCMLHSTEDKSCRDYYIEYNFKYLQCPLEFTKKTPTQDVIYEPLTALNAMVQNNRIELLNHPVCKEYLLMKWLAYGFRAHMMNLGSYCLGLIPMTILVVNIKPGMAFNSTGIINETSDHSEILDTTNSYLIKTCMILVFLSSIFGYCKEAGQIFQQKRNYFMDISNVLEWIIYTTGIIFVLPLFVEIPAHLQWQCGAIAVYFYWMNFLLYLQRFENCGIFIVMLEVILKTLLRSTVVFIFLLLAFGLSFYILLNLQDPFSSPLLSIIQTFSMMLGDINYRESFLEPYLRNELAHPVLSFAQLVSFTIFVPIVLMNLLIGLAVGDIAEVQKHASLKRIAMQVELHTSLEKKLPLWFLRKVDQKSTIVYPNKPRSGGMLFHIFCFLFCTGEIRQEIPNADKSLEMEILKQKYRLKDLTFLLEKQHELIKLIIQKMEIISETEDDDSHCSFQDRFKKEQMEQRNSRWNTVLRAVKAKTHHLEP
Description: as §1

[8] = system: cleaved PARP (c-PARP); assay: Western blot of cleaved PARP, Ca127 cells; assay type: cell-based; settings: increasing concentrations of thymol
Description: as §2

[9] = system: solid tumors (breast, lung, prostate, colon, cervical); assay: Anti-tumor effects against solid tumors (inventor's data); settings: all types of solid tumors (breast, lung, prostate, colon, cervical)
Description: However head and neck cancer is 90% of squamous cell origin.

[10] = system: Ca127 cells; assay: Calcium imaging of Ca127 cells; assay type: cell-based; settings: for effect of inhibitor pre-treatment on calcium influx in response to thymol: Ca127 cells, pre-treatment followed by thymol 400 μM
Description: as §1, §2

[11] = system: HeLa-derived tumors; assay: HeLa mouse xenograft, intra-tumor injection
[12] = system: Ca127-derived tumors; assay: Ca127 mouse xenograft, intra-tumor injection
[13] = system: Ca127; assay: Clonogenic assay, Ca127 cells
Description: as §3

T1 sequence (Q8NER1 whole entry, species assumed): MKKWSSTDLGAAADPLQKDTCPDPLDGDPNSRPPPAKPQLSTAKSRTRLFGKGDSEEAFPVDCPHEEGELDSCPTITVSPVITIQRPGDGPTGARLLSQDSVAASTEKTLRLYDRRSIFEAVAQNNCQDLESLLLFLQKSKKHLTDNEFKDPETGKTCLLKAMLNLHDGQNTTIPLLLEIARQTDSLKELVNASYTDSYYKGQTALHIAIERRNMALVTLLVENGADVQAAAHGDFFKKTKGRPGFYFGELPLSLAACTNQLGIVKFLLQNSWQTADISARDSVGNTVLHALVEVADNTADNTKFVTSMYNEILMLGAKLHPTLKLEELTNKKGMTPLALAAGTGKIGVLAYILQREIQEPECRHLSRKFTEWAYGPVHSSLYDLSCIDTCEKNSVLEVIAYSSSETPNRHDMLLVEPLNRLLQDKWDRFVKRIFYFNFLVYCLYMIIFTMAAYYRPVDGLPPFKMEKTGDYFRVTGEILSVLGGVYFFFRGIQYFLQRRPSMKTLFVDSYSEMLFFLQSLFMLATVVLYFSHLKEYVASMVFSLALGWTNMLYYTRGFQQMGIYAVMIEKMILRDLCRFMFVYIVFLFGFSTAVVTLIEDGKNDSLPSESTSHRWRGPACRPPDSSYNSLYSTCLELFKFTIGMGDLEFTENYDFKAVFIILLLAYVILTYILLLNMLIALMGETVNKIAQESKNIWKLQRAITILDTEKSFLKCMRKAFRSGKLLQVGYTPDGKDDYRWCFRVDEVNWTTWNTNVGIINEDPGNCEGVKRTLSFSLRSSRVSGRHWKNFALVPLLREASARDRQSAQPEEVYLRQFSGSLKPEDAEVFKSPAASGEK

| Compound | TRPV1 channel activation (calcium imaging) [1] | activation of cleaved PARP (apoptosis) [2] | IC50 [3] | calcium response [4] | colony formation ([5]; HeLa (FIGS. 3A-D), one minute exposure, 10 days) | colony formation ([5]; HeLa, single two minute exposure, 4.3 mM, ten days) | IC50 [6] | TRPA1 channel activation (calcium imaging) [7] | activation of cleaved PARP (apoptosis) [8] | anti-tumor effects [9] | calcium influx ([10]; Ca127 cells expressing TRPA1, thymol 400 μM) | median tumor volume ([11]; Day 26 as printed, thymol 4.3 mM every other day for 22 days, control 900 mm^3) | tumor volume compared to control ([11]; by day 18, remained through day 22, 4.3 mM intra-tumor every other day, p<0.001) | average tumor volume ([11]; thymol 4.3 mM intra-tumor every other day for 22 days, control 900 mm^3) | median tumor volume ([12]; Day 26, thymol 4.3 mM every other day, control 400 mm^3) | tumor volume compared to control ([12]; by day 16, 4.3 mM intra-tumor every other day, p<0.001) | average tumor volume ([12]; thymol 4.3 mM intra-tumor every other day for 26 days, control 400 mm^3) | colony formation ([13]; Ca127 (FIGS. 3A-D), one minute exposure, 10 days) | colony formation ([13]; Ca127, single two minute exposure, 4.3 mM, ten days) | effect of inhibitor pre-treatment on calcium influx in response to thymol [10] |
| --- | --- | --- | --- | --- | --- | --- | --- | --- | --- | --- | --- | --- | --- | --- | --- | --- | --- | --- | --- | --- |
| Cc1ccc(C(C)C)c(O)c1 [thymol, 2-isopropyl-5-methylphenol] | not TRPV1 channels | dose-dependent activation | 400 µM | did not respond | abolished colony formation | abolished colony formation | 400 µM | activates TRPA1 channels | dose-dependent activation | anti-tumor effects | small calcium influx | 500 mm^3 | significant reduction | 500 mm^3 | 100 mm^3 | significant reduction | 90 mm^3 | abolished colony formation | abolished colony formation |  |
| O=C(O)c1ccc(S(=O)(=O)N(Cc2ccc(OC(F)(F)F)cc2)c2ncc(C(F)(F)F)cc2Cl)cc1 [RQ00203078] |  |  |  |  |  |  |  |  |  |  |  |  |  |  |  |  |  |  |  | reduced calcium influx |
| CC(C)c1ccc(NC(=O)Cn2cnc3c2c(=O)n(C)c(=O)n3C)cc1 [HC030031] |  |  |  |  |  |  |  |  |  |  |  |  |  |  |  |  |  |  |  | nearly abolished all calcium influx |
